Test results reported in patent US9139577B2, “Sulfoximine substituted quinazolines for pharmaceutical compositions” (Boehringer Ingelheim International GmbH, priority 2013, dated 2015).

Biological target: MNK2a (Homo sapiens (Human), UniProt Q9HBH9)
Assay: MNK2a in vitro kinase assay (Assay 2), ADP-Glo
Type: biochemical
Conditions: read-out: MNK2 IC50
Experimental: B. MNK2a In vitro Kinase Assay (Assay 2)
ASSAY SETUP: The inhibition of kinase activity of MNK2a was assessed using pre-activated GST-MNK2a. The white, 384-well OptiPlate F plates were purchased from PerkinElmer. The ADP-Glo Kinase Assay (including ultra pure ATP) was purchased from Promega (V9103). Activated MNK2a was obtained as described in WO2011/104340. […] ID No. 5 of WO 2011/104340 by the C-terminal —CONH2 group, was purchased from Thermo Fisher Scientific. All other materials were of highest grade commercially available. Compounds are tested in either serial dilutions or single dose concentrations. The compound stock solutions are 10 mM in 100% DMSO The serial compound dilutions are prepared in 100% DMSO followed by 1:27.3 intermediate dilution in assay buffer. The final DMSO concentration in assay will be <3%. In the 384-well plates 3 μl of test compound from the intermediate dilution is mixed with 4 μl of the activated MNK2 enzyme (final concentration of 10 nM) and 4 μl of the peptide (final concentration of 25 μM)/ultra pure ATP (final concentration of 20 μM), all dissolved in assay buffer. This step is followed by an incubation time of 90 min, then 10 μl of ADP Glo reagent are added, followed by 40 min of incubation. Then 20 μl of kinase detection reagent are admixed. The plates are sealed and after an incubation period of 30 min, the luminescence signal is measured in an Envision reader to determine the amount of produced ADP. All incubation steps are performed at room temperature. The assay buffer consists of 20 mM HEPES, 2 mM DTT, 0.01% BSA, 20 mM MgCl2 and 0.1% Pluronic F-127.
The luminescent signal generated is proportional to the ADP concentration produced and is correlated with activated MNK2 activity. The analysis of the data is performed by the calculation of the percentage of ATP consumption of activated MNK2 in the presence of the test compound compared to the consumption of ATP in the presence of activated MNK2 without compound. (RLU(sample)−RLU(low control))*100/(RLU(high value)−RLU(low control)) [RLU=relative luminescence units]
[…] values based on dose response curves are calculated with the AssayExplorer software.

Chain of MNK2a (Q9HBH9 whole entry): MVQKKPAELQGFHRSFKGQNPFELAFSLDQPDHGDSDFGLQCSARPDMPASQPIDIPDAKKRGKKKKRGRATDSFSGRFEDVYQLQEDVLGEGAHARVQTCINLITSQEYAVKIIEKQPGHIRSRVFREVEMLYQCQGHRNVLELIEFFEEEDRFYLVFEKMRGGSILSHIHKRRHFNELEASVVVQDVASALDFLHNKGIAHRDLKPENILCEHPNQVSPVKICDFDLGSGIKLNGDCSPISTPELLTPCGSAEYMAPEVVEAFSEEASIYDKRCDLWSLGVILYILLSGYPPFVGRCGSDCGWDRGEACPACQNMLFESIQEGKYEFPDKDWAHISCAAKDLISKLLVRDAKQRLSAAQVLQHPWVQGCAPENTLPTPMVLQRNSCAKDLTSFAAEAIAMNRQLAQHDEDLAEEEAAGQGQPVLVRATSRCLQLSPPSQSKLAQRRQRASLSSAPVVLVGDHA

C[C@@H](Oc1cc(F)ccc1Nc1ncnc2cc(N=S(C)(C)=O)cc(Cl)c12)C(=O)NC(CF)CF [Example 4.120]
IC50: 2 nM

Cc1cc(N=S2(=O)CCC2)cc2ncnc(Nc3ccc(F)cc3O[C@H](C)C(=O)NC(C)C(F)F)c12 (stereo partly drawn) [Example 4.109]
IC50: 2 nM

Cc1cc(N=S(C)(=O)C2CCNC2)cc2ncnc(Nc3ccc(F)cc3O[C@H](C)C(=O)NCC(F)(F)F)c12 (stereo partly drawn) [Example 2.028]
IC50: 3 nM

Cc1cc(N=S2(=O)CCCC2)cc2ncnc(Nc3ccc(F)cc3O[C@H](C)C(=O)NCC(F)F)c12 [Example 4.043]
IC50: 2 nM

Cc1cc(N=S2(=O)CCC2)cc2ncnc(Nc3ccc(Cl)cc3O[C@H](C)C(=O)N[C@@H](C)C#N)c12 [Example 4.147]
IC50: 3 nM

C[C@@H](Oc1cc(F)ccc1Nc1ncnc2cc(N=S3(=O)CCC3)cc(F)c12)C(=O)NCC(F)(F)C(F)(F)F [Example 4.129]
IC50: 2 nM

Cc1cc(N=S2(=O)CCC2)cc2ncnc(Nc3ccc(F)cc3O[C@H](CO)C(F)(F)F)c12 [Example 2.043]
IC50: 2 nM

Cc1cc(N=S2(=O)CCC2)cc2ncnc(Nc3ccc(Cl)nc3O[C@H](C)C(=O)NCC(F)(F)F)c12 [Example 4.124]
IC50: 1 nM

Cc1cc(N=S(C)(=O)C2CC2)cc2ncnc(Nc3ccc(F)cc3O[C@H](C)C(=O)NCC(F)(F)F)c12 (stereo partly drawn) [Example 2.042]
IC50: 5 nM

CC(NC(=O)[C@@H](C)Oc1cc(F)ccc1Nc1ncnc2cc(N=S3(=O)CCC3)cc(F)c12)C(F)F (stereo partly drawn) [Example 4.130]
IC50: 3 nM

CC(C)NC(=O)[C@@H](C)Oc1cc(F)ccc1Nc1ncnc2cc(N=S3(=O)CCC3)cc(F)c12 [Example 4.114]
IC50: 5 nM

Cc1cc(N=S(C)(C)=O)cc2ncnc(Nc3ccc(F)cc3O[C@H](C)C(=O)N3CCC(=O)CC3)c12 [Example 4.046]
IC50: 15 nM

CCCNC(=O)[C@@H](C)Oc1cc(F)ccc1Nc1ncnc2cc(N=S3(=O)CCCC3)cc(C)c12 [Example 4.033]
IC50: 2 nM

Cc1cc(N=S(C)(C)=O)cc2ncnc(Nc3ccc(Cl)cc3O[C@H](C)C(=O)NCC(F)F)c12 [Example 4.142]
IC50: 2 nM

C[C@@H](Oc1cc(F)ccc1Nc1ncnc2cc(N=S(C)(C)=O)cc(Cl)c12)C(=O)NCC(F)(F)F [Example 4.091]
IC50: 1 nM

C[C@H](NC(=O)[C@@H](C)Oc1cc(F)ccc1Nc1ncnc2cc(N=S(C)(C)=O)cc(Cl)c12)C(F)(F)F [Example 4.135]
IC50: 2 nM

C[C@@H](C#N)NC(=O)[C@@H](C)Oc1cc(F)ccc1Nc1ncnc2cc(N=S3(=O)CCC3)cc(F)c12 [Example 4.106]
IC50: 2 nM

CC(NC(=O)[C@@H](C)Oc1cc(F)ccc1Nc1ncnc2cc(N=S3(=O)CCC3)cc(Cl)c12)C(F)F (stereo partly drawn) [Example 4.126]
IC50: 2 nM

CC(C)NC(=O)[C@@H](C)Oc1cc(F)ccc1Nc1ncnc2cc(N=S(C)(C)=O)cc(Cl)c12 [Example 4.076]
IC50: 4 nM

Cc1cc(N=S2(=O)CC(C)(C)C2)cc2ncnc(Nc3ccc(Cl)cc3O[C@H](C)C(=O)N[C@@H](C)C(F)(F)F)c12 [Example 2.034]
IC50: 1 nM

C[C@@H](C#N)NC(=O)[C@@H](C)Oc1cc(Cl)ccc1Nc1ncnc2cc(N=S3(=O)CCC3)cc(F)c12 [Example 4.077]
IC50: 2 nM

C[C@H](NC(=O)[C@@H](C)Oc1cc(F)ccc1Nc1ncnc2cc(N=S3(=O)CCC3)cc(C(F)F)c12)C(F)(F)F [Example 4.143]
IC50: 2 nM

Cc1cc(N=S2(=O)CCCC2)cc2ncnc(Nc3ccc(F)cc3O[C@H](C)C(=O)N3CCC3)c12 [Example 4.070]
IC50: 7 nM

Cc1cc(N=S(C)(=O)C2CCOCC2)cc2ncnc(Nc3ccc(F)cc3O[C@H](C)C(=O)NCC(F)(F)F)c12 (stereo partly drawn) [Example 2.029]
IC50: 4 nM

Cc1cc(N=S2(=O)CCC(C)C2)cc2ncnc(Nc3ccc(F)cc3O[C@H](C)C(=O)NCC(F)(F)F)c12 (stereo partly drawn) [Example 2.035]
IC50: 2 nM

Cc1cc(N=S(C)(C)=O)cc2ncnc(Nc3ccc(F)cc3O[C@H](C)C(=O)N[C@H](C)C(F)(F)F)c12 [Example 3.051]
IC50: 3 nM

Cc1cc(N=S2(=O)CCCC2)cc2ncnc(Nc3ccc(F)cc3O[C@H](C)C(=O)N3CC[S+]([O-])CC3)c12 [Example 4.004]
IC50: 6 nM

C[C@@H](Oc1cc(F)ccc1Nc1ncnc2cc(N=S(C)(=O)C(C)(C)C)cc(F)c12)C(=O)NCC(F)(F)F (stereo partly drawn) [Example 2.040]
IC50: 18 nM

Cc1cc(N=S2(=O)CCCC2)cc2ncnc(Nc3ccc(F)cc3O[C@H](C)C(=O)NCCF)c12 [Example 4.105]
IC50: 2 nM

Cc1cc(N=S(C)(C)=O)cc2ncnc(Nc3ccc(F)cc3O[C@H](C)C(=O)N(CC(F)(F)F)CC(F)(F)F)c12 [Example 3.055]
IC50: 3 nM

C[C@@H](Oc1cc(F)ccc1Nc1ncnc2cc(N=S(C)(C)=O)cc(C(F)(F)F)c12)C(=O)NCC(F)(F)F [Example 4.086]
IC50: 2 nM

Cc1cc(N=S(C)(C)=O)cc2ncnc(Nc3ccc(F)cc3O[C@H](C)C(=O)N3CC[S+]([O-])CC3)c12 [Example 4.030]
IC50: 11 nM

COc1cc(N=S2(=O)CCC2)cc2ncnc(Nc3ccc(F)cc3O[C@H](C)C(=O)N[C@@H](C)C(F)(F)F)c12 [Example 6.001]
IC50: 5 nM

C[C@@H](Oc1cc(F)ccc1Nc1ncnc2cc(N=S3(=O)CC4(COC4)C3)cc(Cl)c12)C(=O)NCC(F)(F)F [Example 2.024]
IC50: 3 nM

Cc1cc(N=S(C)(C)=O)cc2ncnc(Nc3ccc(F)cc3OC(C)C(F)(F)F)c12 (racemic) [Example 1.013]
IC50: 2 nM

CC(NC(=O)[C@@H](C)Oc1cc(F)ccc1Nc1ncnc2cc(N=S(C)(C)=O)cc(Cl)c12)C(F)F (stereo partly drawn) [Example 4.134]
IC50: 3 nM

Cc1cc(N=S(C)(C)=O)cc2ncnc(Nc3ccc(F)cc3O[C@H](CO)C(N)=O)c12 [Example 7.012]
IC50: 46 nM

Cc1cc(N=S2(=O)CC[C@H](N)C2)cc2ncnc(Nc3ccc(F)cc3O[C@H](C)C(=O)NCC(F)(F)F)c12 (stereo partly drawn) [Example 2.019]
IC50: 1 nM

C[C@@H](Oc1cc(F)ccc1Nc1ncnc2cc(N=S(C)(C)=O)cc(Cl)c12)C(=O)NCC#N [Example 4.085]
IC50: 2 nM

C[C@@H](Oc1cc(F)ccc1Nc1ncnc2cc(N=S3(=O)CC(C)(C)C3)cc(Cl)c12)C(=O)NCC(F)(F)F [Example 2.037]
IC50: 2 nM

Cc1nnc(C(C)Oc2cc(F)ccc2Nc2ncnc3cc(N=S(C)(C)=O)cc(C)c23)o1 (stereo not drawn) [Example 3.041]
IC50: 33 nM

Cc1cc(N=S2(=O)CC3(COC3)C2)cc2ncnc(Nc3ccc(F)cc3O[C@H](C)C(=O)NCC(F)(F)F)c12 [Example 2.038]
IC50: 3 nM

C[C@@H](Oc1cc(F)ccc1Nc1ncnc2cc(N=S(C)(C)=O)cc(F)c12)C(=O)NC(CF)CF [Example 4.121]
IC50: 5 nM

CC(C#N)NC(=O)[C@@H](C)Oc1cc(F)ccc1Nc1ncnc2cc(N=S3(=O)CCC3)cc(F)c12 (stereo partly drawn) [Example 4.099]
IC50: 2 nM

Cc1cc(N=S2(=O)CCC2)cc2ncnc(Nc3ccc(F)cc3O[C@H](C)C(=O)NCCF)c12 [Example 4.107]
IC50: 2 nM

C[C@@H](Oc1cc(F)ccc1Nc1ncnc2cc(N=S3(=O)CCCC3)cc(F)c12)C(=O)NCC#N [Example 2.033]
IC50: 4 nM

Cc1cc(N=S(C)(C)=O)cc2ncnc(Nc3ccc(F)cc3OC(C)c3ccnn3C)c12 (stereo not drawn) [Example 3.023]
IC50: 42 nM

C[C@@H](C#N)NC(=O)[C@@H](C)Oc1cc(F)ccc1Nc1ncnc2cc(N=S3(=O)CCC3)cc(Cl)c12 [Example 4.137]
IC50: 1 nM

Cc1cc(N=S2(=O)CC(C)(C)C2)cc2ncnc(Nc3ccc(F)cc3O[C@H](C)C(=O)NCC(F)(F)F)c12 [Example 2.044]
IC50: 1 nM

Cc1cc(N=S2(=O)CCC2)cc2ncnc(Nc3ccc(Cl)cc3O[C@H](C)C(=O)NC(C)C(F)F)c12 (stereo partly drawn) [Example 4.125]
IC50: 1 nM

C[C@@H](Oc1cc(F)ccc1Nc1ncnc2cc(N=S3(=O)CCC3)cc(Cl)c12)C(=O)N[C@H](C)C(F)(F)F [Example 4.090]
IC50: 1 nM

Cc1cc(N=S2(=O)CCC2)cc2ncnc(Nc3ccc(Cl)cc3O[C@H](C)C(=O)N[C@H](C)C(F)(F)F)c12 [Example 4.145]
IC50: 2 nM

Cc1cc(N=S(C)(C)=O)cc2ncnc(Nc3ccc(F)cc3OCC3CNC(=O)C3)c12 (stereo not drawn) [Example 3.037]
IC50: 3 nM

C[C@H](C#N)NC(=O)[C@@H](C)Oc1cc(F)ccc1Nc1ncnc2cc(N=S3(=O)CCC3)cc(F)c12 [Example 4.113]
IC50: 1 nM
